We go through 3 compounds from publication PMC11898488, “A2A Adenosine Receptor Antagonists and Their Efficacy in Rat Models of Parkinson’s Disease” (Cells, 2025).

Structures are written as SMILES.

A word on the Ki: it is the equilibrium dissociation constant of an inhibitor or competing ligand from its target. By IC50 is commonly meant the concentration at which inhibition is half-maximal.

One assay has as its system 6-OHDA-lesioned rats. Nature of the assay: Potentiation of L-dopa-induced contralateral rotations in unilaterally 6-OHDA-lesioned rats. Format: in vivo, rat. The conditions noted are these: 5 mg/kg i.p. with L-dopa 3 mg/kg i.p., turns in 2 h, versus L-dopa alone. As for the experimental part: Rats (275–300 g) were anesthetized and placed on a David Kopf stereotaxic apparatus (Tujunga, CA, USA) and infused, using a stainless steel cannula, into the left medial forebrain bundle [coordinates A = −2.2, L = +1.5 from bregma, V = −7.9 from the dura, according to the atlas of Pellegrino et al. (1979) [34]] with 6-OHDA (8 μg/4 μL of saline containing 0.05% ascorbic acid). Rats were pretreated with desipramine (10 mg/kg i.p.) to prevent damage to noradrenergic neurons.
Rotational behavior was assessed in hemispherical bowls (50 cm diameter), with sawdust on the floor, in which each rat was connected to an automated rotameter system (Panlab s.l., Barcelona, Spain) capable of detecting the number of full (360°) rotations in both directions (ipsilateral and contralateral to the lesioned hemisphere). Rats were placed in the bowls 30 min before drug administration to acclimatize and extinguish any spontaneous rotational behavior, and both contralateral and homolateral rotations were measured in 10 min blocks for 120 min after drug injection. The total number of contralateral and homolateral rotations (mean ± SEM) in a 2 h testing period were calculated.
Potentiation of L-dopa-induced rotational behavior: two weeks after the unilateral 6-OHDA lesion, rats were screened based on their contralateral rotations in response to L-dopa (50 mg/kg i.p.) + benserazide (30 mg/ kg i.p.). Rats not showing at least 300 contralateral rotations during the 2 h testing period were eliminated from the study. Three days later, rats were administered with a subthreshold dose of L-dopa (3 mg/kg i.p.) + benserazide (6 mg/kg i.p.) in combination with the vehicle or with a dose of 5 mg/kg i.p of 1, 4, or 5. Compounds were administered simultaneously with L-dopa. Benserazide was always injected 30 min before L-dopa.
In the rotational behavior experiments, the mean and S.E.M. of the total number of contralateral rotations were calculated. Significant differences between groups were evaluated by one-way ANOVA followed by a Newman–Keuls post hoc test.

For another assay, the target named is T1, human A1AR (Homo sapiens, UniProt P30542).
T1 construct: expressed in transfected cells; host or cells: CHO cells, crude membrane fractions
T1 sequence (P30542 1-326): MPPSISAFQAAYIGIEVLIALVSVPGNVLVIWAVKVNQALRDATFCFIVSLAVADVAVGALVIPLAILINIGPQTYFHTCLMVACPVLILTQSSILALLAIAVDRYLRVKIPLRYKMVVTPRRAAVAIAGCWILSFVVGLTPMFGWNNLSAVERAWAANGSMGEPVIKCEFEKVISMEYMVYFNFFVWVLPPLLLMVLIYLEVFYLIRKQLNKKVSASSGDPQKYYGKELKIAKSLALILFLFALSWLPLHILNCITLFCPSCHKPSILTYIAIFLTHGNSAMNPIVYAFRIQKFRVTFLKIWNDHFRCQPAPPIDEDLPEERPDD
Nature of the assay: Radioligand binding, displacement of [3H]CCPA at human A1AR in CHO cells. Particulars: [3H]-CCPA displacement, geometric mean with 95% confidence limits, read-out: Ki A1. As for the experimental part:
(§1) The radioligand binding experiments were carried out exactly as described previously. For A1AR binding, 1 nM [^3H]CCPA was used as a radioligand, whereas 30 and 10 nM [^3H]NECA were used for A2A and A3 ARs, respectively. Nonspecific binding was determined in the presence of 1 mM theophylline (A1AR) or […] R-PIA (A2A and A3 ARs). Ki values were calculated from competition curves by nonlinear curve fitting with the program SCTFIT [31].
(§2) CHO cells stably transfected with human ARs were grown adherently and maintained in Dulbecco’s Modified Eagles Medium with nutrient mixture F12 (DMEM/F12) without nucleosides, containing 10% fetal calf serum, penicillin (100 U/mL), streptomycin (100 μg/mL), L-glutamine (2 mM), and Geneticin (G-418, 0.2 mg/mL) at 37 °C in 5% CO2/95% air, as described earlier. For radioligand binding studies and measurement of adenylyl cyclase activity, crude membrane fractions were prepared from fresh or frozen cells with two different protocols described earlier. The determination of adenylyl cyclase activity followed the procedure described earlier. IC50 values for the inhibition of adenylyl cyclase stimulated (in the case of A2BAR) with 5 μM NECA were calculated with the Hill equation and converted to Ki values with the Cheng and Prusoff equation [32].
(§3) [^3H]CCPA (2-chloro-N^6-cyclopentylAdo) and [^3H]NECA (5′-N-ethylcarboxamidoAdo) were used as specific radioligands at A1ARand A2A / A3 ARs, respectively. Furthermore, the ability of the same compounds to inhibit NECA-stimulated adenylyl cyclase activity was evaluated at the A2BAR subtype. The results of the binding studies (A1, A2A, and A3 ARs) and functional data (A2BAR) are reported in Table 1 as Ki or IC50 values in nM, together with the data on the reference compounds 1–3.
In general terms: Displacement assays read how much labelled ligand stays bound in the presence of the test substance.

The target of a further assay is T2, human A3AR (Homo sapiens, UniProt P0DMS8).
T2 construct: expressed in transfected cells; host or cells: CHO cells, crude membrane fractions
T2 sequence (P0DMS8 1-318): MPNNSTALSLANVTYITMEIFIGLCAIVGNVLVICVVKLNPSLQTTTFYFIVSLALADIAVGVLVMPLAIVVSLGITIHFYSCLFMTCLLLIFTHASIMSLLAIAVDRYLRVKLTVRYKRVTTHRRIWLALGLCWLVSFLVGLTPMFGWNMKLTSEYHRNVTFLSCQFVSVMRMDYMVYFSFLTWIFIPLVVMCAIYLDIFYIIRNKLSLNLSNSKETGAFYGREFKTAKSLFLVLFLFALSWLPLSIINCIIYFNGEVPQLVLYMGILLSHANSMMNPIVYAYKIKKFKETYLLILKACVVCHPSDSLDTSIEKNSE
Briefly: Radioligand binding, displacement of [3H]NECA at human A3AR in CHO cells. The conditions noted are these: [3H]-NECA displacement, geometric mean with 95% confidence limits, read-out: Ki A3. On the procedure: as §1, §2, §3

A further assay concerns the target T3, human A2BAR (Homo sapiens, UniProt P29275).
T3 construct: expressed in transfected cells; host or cells: CHO cells, crude membrane fractions
T3 sequence (P29275 1-332): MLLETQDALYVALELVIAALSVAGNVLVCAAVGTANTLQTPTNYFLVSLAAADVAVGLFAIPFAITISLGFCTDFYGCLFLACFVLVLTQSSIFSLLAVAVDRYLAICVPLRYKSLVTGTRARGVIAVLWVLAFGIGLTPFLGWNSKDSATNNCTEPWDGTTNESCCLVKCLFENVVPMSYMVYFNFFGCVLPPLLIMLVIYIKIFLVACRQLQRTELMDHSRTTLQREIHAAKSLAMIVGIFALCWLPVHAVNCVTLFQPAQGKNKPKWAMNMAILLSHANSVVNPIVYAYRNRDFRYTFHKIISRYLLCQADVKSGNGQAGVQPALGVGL
Nature of the assay: Inhibition of NECA-stimulated adenylyl cyclase activity at human A2BAR. The format is biochemical. The conditions noted are these: inhibition of NECA-stimulated AC activity, CHO cells expressing human A2BAR; geometric mean with 95% confidence limits; read-out: IC50 A2B. As for the experimental part:
as §2, §3

`CCn1c(Br)nc2c(N)nc(OCCc3ccccc3)nc21` [Compound 1, 8-bromo-9-ethyl-2-phenetoxyadenine]: in the assay with 6-OHDA-lesioned rats, the “Number of contralateral rotations induced by subthreshold L-dopa” value (from here on “Number”) is given as “did not increase”.
As for `CCOc1nc2c(N)nc(OCCc3ccccc3)nc2n1CC` [Compound 4, 8-ethoxy-9-ethyl-2-phenethoxyadenine], the Ki came to 86 nM at human A1AR and 359 nM at human A3AR. The IC50 on human A2BAR stood at 6.51 µM. The “Number” value with 6-OHDA-lesioned rats is given as “significantly increased”.
Turning to `CCn1c(I)nc2c(N)nc(OCCc3ccccc3)nc21` [Compound 5, 9-ethyl-8-iodo-2-phenethoxy-9H-purin-6-amine], the Ki at human A1AR worked out at 25 nM; on human A3AR, 489 nM. Also, the IC50 on human A2BAR was 0.719 µM. The “Number” value in the assay with 6-OHDA-lesioned rats was “significantly increased”.
